A short description of series [1]: In vitro cytotoxicity assay (MTT cell viability) in HepG2 cells. The series is classed as cell-based, human. As to conditions: human. Put shortly:
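Using MTT conversion as the viability measure, HepG2 cells were incubated with compounds for 7 days (30 μM to 1.0 nM). Absorbance at 492 nm was normalized to vehicle and fitted to give CC50.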

The test system of series [2] is HBV replication in HepAD38 cells. In words: Anti-HBV replication assay in HepAD38 cells (QPCR of extracellular HBV DNA). As to conditions: Hepatitis B virus, 168 h, 7 days incubation, extracellular HBV DNA by QPCR, read-out: Anti-HBV EC50. It counts as cell-based, HBV (genotype D, serotype ayw). Put shortly:
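Stably transfected HepG2-derived HepAD38 cells express HBV (genotype D, ayw) once tetracycline is withdrawn. Compounds act for 7 days, after which secreted HBV DNA is quantified by QPCR relative to DMSO-treated wells.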

pEC50: −log10 of the molar value. Some results are limits rather than exact numbers.

In the case of `Cc1cc(NC(=O)c2c(C)c(C(=O)C(=O)NOCC(F)(F)F)n(C)c2C)ccc1F` [Example 157, N-(4-fluoro-3-methylphenyl)-1,2,4-trimethyl-5-(2-oxo-2-((2,2,2-trifluoroethoxy)amino)acetyl)-1H-pyrrole-3-carboxamide], the CC50 – broadly, the concentration giving 50% cytotoxicity – at 7 days in series [1] was above 30000 nM. Moreover, the pEC50 (as a rule, the EC50 on a negative log10 scale, so that one unit is a factor of ten) in series [2] was 6.30 to 7.30.
Taken in the same sequence, the figures for `CCNC(=O)N1CCC(C)(NC(=O)C(=O)c2c(C)c(C(=O)Nc3ccc(F)c(C)c3)c(C)n2C)CC1` [Example 614, N-ethyl-4-(2-(4-((4-fluoro-3-methylphenyl)carbamoyl)-1,3,5-trimethyl-1H-pyrrol-2-yl)-2-oxoacetamido)-4-methylpiperidine-1-carboxamide] were above 30000 nM and above 7.30.
Molecule `Cc1cc(NC(=O)c2c(C)c(C(=O)C(=O)NC3(C)CC(F)(F)C3)n(C)c2C)cnc1F` [Example 206, 5-(2-((3,3-difluoro-1-methylcyclobutyl)amino)-2-oxoacetyl)-N-(6-fluoro-5-methylpyridin-3-yl)-1,2,4-trimethyl-1H-pyrrole-3-c carboxamide] yielded a CC50 at 7 days in series [1] above 30000 nM. Also, the pEC50 in series [2] was above 7.30.
`Cc1cc(NC(=O)c2c(Cl)c(C(=O)C(=O)NC3(CO)CC(F)(F)C3)n3c2CCC3)cnc1F` [Example 579, 6-chloro-5-(2-((3,3-difluoro-1-(hydroxymethyl)cyclobutyl)amino)-2-oxoacetyl)-N-(6-fluoro-5-methylpyridin-3-yl)-2,3-dihydro-1H-pyrrolizine-7-carboxamide] returned a CC50 at 7 days in series [1] above 30000 nM. Moreover, the pEC50 in series [2] was 6.00 to 6.30.
As to `Cc1cc(NC(=O)c2cc(C(=O)C(=O)NC(C)(C)C)n3c2CCCC3)ccc1F` [Example 393, 3-(2-(tert-butylamino)-2-oxoacetyl)-N-(4-fluoro-3-methylphenyl)-5,6,7,8-tetrahydroindolizine-1-carboxamide], the CC50 at 7 days in series [1] was above 30000 nM. Moreover, the pEC50 in series [2] was 6.30 to 7.30.
The molecule `Cc1noc([C@@H](NC(=O)C(=O)c2c(C)c(C(=O)Nc3ccc(F)c(C)c3)c(C)n2C)C(C)C)n1` [Example 145, (S)-N-(4-fluoro-3-methylphenyl)-1,2,4-trimethyl-5-(2-((2-methyl-1-(3-methyl-1,2,4-oxadiazol-5-yl)propyl)amino)-2-oxoacetyl)-1H-pyrrole-3-carboxamide] showed a CC50 at 7 days in series [1] above 30000 nM. For the same molecule, the pEC50 in series [2] is above 7.30.
As for `Cc1cc(NC(=O)c2c(Cl)c(C(=O)C(=O)N[C@H]3COC[C@@H]3O)n3c2CCC3)ccc1F` [Example 572, 6-chloro-N-(4-fluoro-3-methylphenyl)-5-(2-(((3S,4R)-4-hydroxytetrahydrofuran-3-yl)amino)-2-oxoacetyl)-2,3-dihydro-1H-pyrrolizine-7-carboxamide], the CC50 at 7 days in series [1] was above 30000 nM. Also, the pEC50 in series [2] is above 7.30.
As for `CC(C)(CO)CNC(=O)C(=O)c1c(Cl)c(C(=O)Nc2ccc(F)c(F)c2)c2n1CCCC2` [Example 528, 2-chloro-N-(3,4-difluorophenyl)-3-(2-((3-hydroxy-2,2-dimethylpropyl)amino)-2-oxoacetyl)-5,6,7,8-tetrahydroindolizine-1-carboxamide], in series [1], the CC50 at 7 days lay within 500 to 4990 nM. Further, the pEC50 in series [2] is 6.00 to 6.30.
In the same order, the values of `Cc1cc(NC(=O)c2c(C)c(C(=O)C(=O)N[C@H](C(=O)O)C(C)(C)C)n(C)c2C)ccc1F` [Example 30, (S)-2-(22-(4-((4-fluoro-3-methylphenyl)carbamoyl)-1,3,5-trimethyl-1H-pyrrol-2-yl)-2-oxoacetamido)-3,3-dimethylbutanoic acid] are above 30000 nM and below 6.00.
In the same order, the values of `O=C(NC1(CO)CC(F)(F)C1)C(=O)c1c(Cl)c(C(=O)Nc2ccnc(F)c2)c2n1CCCC2` [Example 511, 2-chloro-3-(2-((3,3-difluoro-1-(hydroxymethyl)cyclobutyl)amino)-2-oxoacetyl)-N-(2-fluoropyridin-4-yl)-5,6,7,8-tetrahydroindolizine-1-carboxamide] are above 30000 nM and 6.30 to 7.30.
In the case of `Cc1cc(NC(=O)c2cc(C(=O)C(=O)NC(C)(C)C)n(C)c2)ccc1F` [Example 1, 5-(2-(tert-butylamino)-2-oxocetyl)-N-(4-fluoro-3-methylphenyl)-1-methyl-1H-pyrrole-3-carboxamide], in series [1], the CC50 at 7 days is above 30000 nM. Also, the pEC50 in series [2] is above 7.30.
As to `Cc1cc(NC(=O)c2c(C)c(C(=O)C(=O)NCC(C)(C)CO)n3c2CCCC3)cnc1F` [Example 476, N-(6-fluoro-5-methylpyridin-3-yl)-3-(2-((3-hydroxy-2,2-dimethylpropyl)amino)-2-oxoacetyl)-2-methyl-5,6,7,8-tetrahydroindolizine-1-carboxamide], the CC50 at 7 days in series [1] lay within 5000 to 30000 nM. The pEC50 in series [2] was below 6.00.
In turn, `Cc1cc(NC(=O)c2c(C)c(C(=O)C(=O)NC[C@@H](C)O)n(C)c2C)ccc1F` [Example 220, (R)-N-(4-ffluoro-3-methylphenyl)-5-(2-((2-hydroxypropyl)amino)-2-oxoacetyl)-1,2,4-trimethyl-1H-pyrrole-3-carboxamide] showed a CC50 at 7 days in series [1] of 5000 to 30000 nM. Also, the pEC50 in series [2] is above 7.30.
As to `Cc1c(C(=O)Nc2ccc(F)nc2)c(C)n(C)c1C(=O)C(=O)NC(C)(C)CN1CCOCC1` [Example 350, N-(6-fluoropyridin-3-yl)-1,2,4-trimethyl-5-(2-((2-methyl-1-morpholinopropan-2-yl)amino)-2-oxoacetyl)-1H-pyrrole-3-carboxamide], the 50% cytotoxic concentration (CC50) at 7 days in series [1] was above 30000 nM. The pEC50 in series [2] is 6.00 to 6.30.
In turn, `Cc1cc(NC(=O)c2c(C)c(C(=O)C(=O)Nc3cccnc3)n(C)c2C)cnc1F` [Example 339, N-(6-fluoro-5-methylpyridin-3-yl)-1,2,4-trimethyl-5-(2-oxo-2-(pyridin-3-ylamino)acetyl)-1H-pyrrole-3-carboxamide] returned a CC50 at 7 days in series [1] above 30000 nM. Besides, in series [2], the pEC50 was 6.00 to 6.30.
In the same order, the values of `Cc1cc(NC(=O)c2c(C)c(C(=O)C(=O)NC3(C(F)(F)F)CC(O)C3)n(C)c2C)ccc1F` (centres unmarked) [Example 288, N-(4-fluoro-3-methylphenyl)-5-(2-((3-hydroxy-1-(trifluoromethyl)cyclobutyl)amino)-2-oxoacetyl)-1,2,4-trimethyl-1H-pyrrole-3-carboxamide] are above 30000 nM and above 7.30.
As to `Cc1cc(NC(=O)c2c(C)c(C(=O)C(=O)NC3CCNCC3)n(C)c2C)ccc1F` [Example 233, N-(4-fluoro-3-methylphenyl)-1,2,4-trimethyl-5-(2-oxo-2-(piperidin-4-ylamino)acetyl)-1H-pyrrole-3-carboxamide], the CC50 at 7 days in series [1] was above 30000 nM. The pEC50 in series [2] was 6.30 to 7.30.
In the same order, the values of `CCn1c(C)c(C(=O)Nc2ccc(F)c(C)c2)c(C)c1C(=O)C(=O)NC1(C(F)(F)F)CCOCC1` [Example 285, 1-ethyl-N-(4-fluoro-3-methylphenyl)-2,4-dimethyl-5-(2-oxo-2-((4-(trifluoromethyl)tetrahydro-2H-pyran-4-yl)amino)acetyl)-1H-pyrrole-3-carboxamide] are above 30000 nM and above 7.30.
In the same order, the values of `COc1c(C(=O)Nc2ccc(F)c(F)c2)c(C)n(C)c1C(=O)C(=O)N[C@H]1CC[C@@H](O)CC1` [Example 383, N-(3,4-difluorophenyl)-5-(2-(((1s,4s)-4-hydroxycyclohexyl)amino)-2-oxoacetyl)-4-methoxy-1,2-dimethyl-1H-pyrrole-3-carboxamide] are above 30000 nM and 6.00 to 6.30.
In the same order, the values of `CC(C)(C)NC(=O)C(=O)c1cc(C(=O)Nc2ccc(F)c(C#N)c2)c2n1CCOC2` [Example 582, 6-(2-(tert-butylamino)-2-oxoacetyl)-N-(3-cyano-4-fluorophenyl)-3,4-dihydro-1H-pyrrolo[2,1-c][1,4]oxazine-8-carboxamide] are above 30000 nM and below 6.00.
For `Cc1cc(NC(=O)c2c(Cl)c(C(=O)C(=O)N[C@H]3COC[C@@H]3O)n3c2CCCC3)ccc1F` [Example 505, 2-chloro-N-(4-fluoro-3-methylphenyl)-3-(2-(((3S,4R)-4-hydroxytetrahydrofuran-3-yl)amino)-2-oxoacetyl)-5,6,7,8-tetrahydroindolizine-1-carboxamide], in series [1], the CC50 at 7 days was above 30000 nM. Also, in series [2], the pEC50 is 6.00 to 6.30.
Regarding `Cc1c(C(=O)Nc2ccnc(Cl)c2)c(C)n(C)c1C(=O)C(=O)NC1C2CC3CC1CC(O)(C3)C2` [Example 209, N-(2-chloropyridin-4-yl)-5-(2-(((1R,2s,3S,5s,7s)-5-hydroxyadamantan-2-yl)amino)-2-oxoacetyl)-1,2,4-trimethyl-1H-pyrrole-3-carboxamide], in series [1], the CC50 at 7 days is above 30000 nM. Moreover, in series [2], the pEC50 was above 7.30.
Taken in the same sequence, the figures for `Cc1cc(NC(=O)c2c(C)c(C(=O)C(=O)NCC(C)(C)O)n(C)c2C)ccc1F` [Example 66, N-(4-fluoro-3-methylphenyl)-5-(2-((2-hydroxy-2-methylpropyl)amino)-2-oxoacetyl)-1,2,4-trimethyl-1H-pyrrole-3-carboxamide] were above 30000 nM and above 7.30.
The molecule `Cc1noc(C(C)NC(=O)C(=O)c2cc(C(=O)Nc3ccc(F)c(C)c3)c3n2CCCC3)n1` (centres unmarked) [Example 414, N-(4-fluoro-3-methylphenyl)-3-(2-((1-(3-cmethyl-1,2,4-oxadiazol-5-yl)ethyl)amino)-2-oxoacetyl)-5,6,7,8-tetrahydroindolizine-1-carboxamide] yielded a CC50 at 7 days in series [1] above 30000 nM. In series [2], the pEC50 is 6.30 to 7.30.
The molecule `Cc1noc([C@H](NC(=O)C(=O)c2c(Cl)c(C(=O)Nc3ccc(F)c(C)c3)c3n2CCC3)C(C)C)n1` [Example 544, (R)-6-chloro-N-(4-fluoro-3-methylphenyl)-5-(2-((2-methyl-1-(3-methyl-1,2,4-oxadiazol-5-yl)propyl)amino)-2-oxoacetyl)-2,3-dihydro-1H-pyrrolizine-7-carboxamide] returned a CC50 at 7 days in series [1] above 30000 nM. Besides, the pEC50 in series [2] was above 7.30.

For the origin of these results see US20190375708A1 (VenatoRx Pharmaceuticals, Inc., priority 2018, published 2019).
